Reference: US10501752B2, “Herbicide tolerant cotton event pDAB4468.19.10.3” (Dow AgroSciences LLC, priority 2012, dated 2019)

Experiments:
Assay type in all cases: in vivo, Gossypium hirsutum
[1] = system: non-transformed Coker 310 variety of cotton (WT); experiment: Butanoic acids of triclopyr and fluroxypyr greenhouse trials, negative control plants (% injury); settings: 2-3 leaf stage
Method: (§1) Herbicide tolerance was assessed following a single post-emergence application of the two molecules. Seed from cotton event pDAB4468.19.10.3 were heat treated in a water bath at 82.5° C. for 1 minute and then planted in metro mix 360 media and grown in a greenhouse. The temperatures in the greenhouse averaged 27° C. and the photoperiod was set at 16 hours of light and eight hours of dark, with maximum light intensity. Plants were allowed to grow until the 2-3 leaf stage of development and a non-randomized study was conducted with four replications and three treatments for each herbicide. […] In addition, a crop oil concentrate was added to a final concentration of 1.25%. Plants were sprayed in a track sprayer calibrated to deliver 187 L/ha of the formulated technical material. A non-transformed Coker 310 variety of cotton was used as a negative control.

[2] = system: cotton event pDAB4468.19.10.3 (aad-12); experiment: Tolerance to butanoic acids of triclopyr and fluroxypyr in greenhouse trials (% injury); settings: 2-3 leaf stage
Method: as §1

[3] = system: cotton event pDAB4468.19.10.3; experiment: Tolerance to triclopyr and fluroxypyr in greenhouse trials (percent visual injury); settings: cotton event, 3 leaf stage, greenhouse
Method: (§2) The tolerance of cotton event pDAB4468.19.10.3 to post-emergence applications of the pyridyloxyacetic acid herbicides, triclopyr and fluroxypyr, was studied in greenhouse trials. Herbicide tolerance was assessed following a single post-emergence application of triclopyr or fluroxypyr. Seed from cotton event pDAB4468.19.10.3 were heat treated in a water bath at 82.5° C. for 1 minute and then planted in metro mix 360 media and grown in a greenhouse. The temperatures in the greenhouse averaged 27° C. and the photoperiod was set at 16 hours of light and eight hours of dark, with maximum light intensity. Plants were allowed to grow until the 3 leaf stage of development and a non-randomized study was conducted with three replications and three treatments for each herbicide. Plants were sprayed in a track sprayer calibrated to deliver 187 L/ha of the commercial formulations of triclopyr (Garlon 4TM, Dow AgroSciences, Indianapolis, Ind.) and fluroxypyr ([…], Dow AgroSciences, Indianapolis, Ind.). A non-transformed Coker 310 variety of cotton was used as a negative control.

[4] = system: non-transformed Coker 310 variety of cotton; experiment: Triclopyr and fluroxypyr greenhouse trials, negative control plants (percent visual injury); settings: 3 leaf stage
Method: as §2

## O=C(O)COc1nc(Cl)c(Cl)cc1Cl [Triclopyr, triclopyr]
[1]; 140 g ai/ha, 1 DAA
  % Injury: 24.3a %
[1]; 140 g ai/ha, 3 DAA
  % Injury: 30a %
[1]; 140 g ai/ha, 6 DAA
  % Injury: 33.8a %
[1]; 140 g ai/ha, 6 HAA
  % Injury: 20.8a %
[1]; 140 g ai/ha, 14 DAA
  % Injury: 56.3ab %
[1]; 280 g ai/ha, 1 DAA
  % Injury: 23a %
[1]; 280 g ai/ha, 3 DAA
  % Injury: 32.5a %
[1]; 280 g ai/ha, 6 DAA
  % Injury: 33.8a %
[1]; 280 g ai/ha, 6 HAA
  % Injury: 20.3a %
[1]; 280 g ai/ha, 14 DAA
  % Injury: 60ab %
[1]; 560 g ai/ha, 1 DAA
  % Injury: 24.5a %
[1]; 560 g ai/ha, 3 DAA
  % Injury: 32.5a %
[1]; 560 g ai/ha, 6 DAA
  % Injury: 35a %
[1]; 560 g ai/ha, 6 HAA
  % Injury: 21.8a %
[1]; 560 g ai/ha, 14 DAA
  % Injury: 67.5a %
[2]; 140 g ai/ha, 1 DAA
  % Injury: 8.8a %
[2]; 140 g ai/ha, 3 DAA
  % Injury: 2a %
[2]; 140 g ai/ha, 6 DAA
  % Injury: 2.8a %
[2]; 140 g ai/ha, 6 HAA
  % Injury: 19.5a %
[2]; 140 g ai/ha, 14 DAA
  % Injury: 0a %
[2]; 280 g ai/ha, 1 DAA
  % Injury: 8a %
[2]; 280 g ai/ha, 3 DAA
  % Injury: 1.8a %
[2]; 280 g ai/ha, 6 DAA
  % Injury: 0.5a %
[2]; 280 g ai/ha, 6 HAA
  % Injury: 15.8a %
[2]; 280 g ai/ha, 14 DAA
  % Injury: 0a %
[2]; 560 g ai/ha, 1 DAA
  % Injury: 9.5a %
[2]; 560 g ai/ha, 3 DAA
  % Injury: 3.5a %
[2]; 560 g ai/ha, 6 DAA
  % Injury: 3.5a %
[2]; 560 g ai/ha, 6 HAA
  % Injury: 17.3a %
[2]; 560 g ai/ha, 14 DAA
  % Injury: 0a %
[3]; 140 g ae/ha, 3 DAA
  % Injury: 13.0 c %
[3]; 140 g ae/ha, 11 DAA
  % Injury: 3.5 b %
[3]; 280 g ae/ha, 3 DAA
  % Injury: 16.5 b %
[3]; 280 g ae/ha, 11 DAA
  % Injury: 3.3 b %
[3]; 560 g ae/ha, 3 DAA
  % Injury: 19.5 a %
[3]; 560 g ae/ha, 11 DAA
  % Injury: 3.3 b %
[4]; 140 g ae/ha, 3 DAA
  % Injury: 33.8 a %
[4]; 140 g ae/ha, 11 DAA
  % Injury: 36.3 b %
[4]; 280 g ae/ha, 3 DAA
  % Injury: 33.8 a %
[4]; 280 g ae/ha, 11 DAA
  % Injury: 40.0 ab %
[4]; 560 g ae/ha, 3 DAA
  % Injury: 36.3 a %
[4]; 560 g ae/ha, 11 DAA
  % Injury: 48.8 a %

## O=C(O)CCCOc1nc(Cl)c(Cl)cc1Cl [Triclopyr-b, triclopyr-B]
[1]; 140 g ai/ha, 1 DAA
  % Injury: 20.5a %
[1]; 140 g ai/ha, 3 DAA
  % Injury: 26.7a %
[1]; 140 g ai/ha, 6 DAA
  % Injury: 25b %
[1]; 140 g ai/ha, 6 HAA
  % Injury: 12.8b %
[1]; 140 g ai/ha, 14 DAA
  % Injury: 47.5b %
[1]; 280 g ai/ha, 1 DAA
  % Injury: 21.5a %
[1]; 280 g ai/ha, 3 DAA
  % Injury: 27.5a %
[1]; 280 g ai/ha, 6 DAA
  % Injury: 33.8a %
[1]; 280 g ai/ha, 6 HAA
  % Injury: 7.3b %
[1]; 280 g ai/ha, 14 DAA
  % Injury: 57.5ab %
[1]; 560 g ai/ha, 1 DAA
  % Injury: 18.8a %
[1]; 560 g ai/ha, 3 DAA
  % Injury: 33.8a %
[1]; 560 g ai/ha, 6 DAA
  % Injury: 35a %
[1]; 560 g ai/ha, 6 HAA
  % Injury: 8.3b %
[1]; 560 g ai/ha, 14 DAA
  % Injury: 51.3ab %
[2]; 140 g ai/ha, 1 DAA
  % Injury: 0.5b %
[2]; 140 g ai/ha, 3 DAA
  % Injury: 1a %
[2]; 140 g ai/ha, 6 DAA
  % Injury: 1.5a %
[2]; 140 g ai/ha, 6 HAA
  % Injury: 3.8c %
[2]; 140 g ai/ha, 14 DAA
  % Injury: 0a %
[2]; 280 g ai/ha, 1 DAA
  % Injury: 2b %
[2]; 280 g ai/ha, 3 DAA
  % Injury: 2a %
[2]; 280 g ai/ha, 6 DAA
  % Injury: 2.8a %
[2]; 280 g ai/ha, 6 HAA
  % Injury: 5.3c %
[2]; 280 g ai/ha, 14 DAA
  % Injury: 0a %
[2]; 560 g ai/ha, 1 DAA
  % Injury: 2.8b %
[2]; 560 g ai/ha, 3 DAA
  % Injury: 3.5a %
[2]; 560 g ai/ha, 6 DAA
  % Injury: 4.3a %
[2]; 560 g ai/ha, 6 HAA
  % Injury: 8.5b %
[2]; 560 g ai/ha, 14 DAA
  % Injury: 0a %
